Patent publication US20110245242A1, “Heterocyclically Substituted Anilinopyrimides” (Bayer CropScience AG, priority 2008, published 2011)

Assays:
[1] = log P by HPLC on reversed-phase columns (C 18), method [a], acidic range pH 2.3; assay type: physicochemical; settings: for chromatographic logP: pH 2.3, log P (pH 2.3)
Method: The log P values were measured in accordance with EEC Directive 79/831 Annex V.A8 by HPLC (High Performance Liquid Chromatography) on reversed-phase columns (C 18) using the methods below: [a] The determination was carried out in the acidic range at pH 2.3 using the mobile phases 0.1% aqueous phosphoric acid and acetronitrile linear gradient from 10% acetonitrile to 95% acetronitrile.

physchem = assay type: physicochemical; settings: pH 7.8
Method: The log P values were measured in accordance with EEC Directive 79/831 Annex V.A8 by HPLC (High Performance Liquid Chromatography) on reversed-phase columns (C 18) using the methods below: [c] The LC-MS determination in the neutral range was carried out at pH 7.8 using the mobile phases 0.001 molar aqueous ammonium bicarbonate solution and acetonitrile linear gradient from 10% acetonitrile to 95% acetonitrile.

Fusarium proliferatum = assay: Production of Fumonisin FB1 by Fusarium proliferatum (microtitre plates; FB1 by HPLC-MS/MS, growth by OD620); assay type: cell-based
[2] = log P by LC-MS, method [b], acid range pH 2.7; assay type: physicochemical; settings: pH 2.7
Method: The log P values were measured in accordance with EEC Directive 79/831 Annex V.A8 by HPLC (High Performance Liquid Chromatography) on reversed-phase columns (C 18) using the methods below:
[b] The LC-MS determination in the acid range was carried out at pH 2.7 using the mobile phases 0.1% aqueous formic acid and acetonitrile (contains 0.1% formic acid)
linear gradient from 10% acetonitrile to 95% acetonitrile.

Compound | log p ([1]; pH 2.3) | log p (physchem) | log p [2] | also measured
CC1CC(C)N(c2cccc(Nc3ncc(Cl)c(N(C)C4CC4)n3)c2)C1=O (centres unmarked) [Example 178] |  |  | 2.61[b] | pI50 Fum (Fusarium proliferatum; FB1 concentration in liquid medium after 6 days at 20° C., HPLC-MS/MS): 5.7; pI50 growth (Fusarium proliferatum; OD620 at the beginning and after 6 days): 4.9
O=C1CCCN1c1cc(Nc2ncc(Cl)c(NCC(F)F)n2)ccc1F [Example 51] | 1.72[a]; | 2.15[c] |  | 
CCOC(=O)N(c1cccc(N2CCCC2=O)c1)c1ncc(Cl)c(NC2CC2)n1 [Example 330, Ethyl [5-chloro-4-(cyclopropylamino)pyrimidin-2-yl][3-(2-oxopyrrolidin-1-yl)phenyl]-carbamate] |  |  |  | chromatographic logP [1]: 2.04; chromatographic logP (physchem): 2.24; chromatographic logP [2]: 2.04
O=C1CCCN1c1cc(Nc2ncc(Cl)c(NC3CC3)n2)ccc1OC(F)(F)F [Example 20] | 2.34[a]; | 2.91[c] |  | 
CC(C)Nc1nc(Nc2ccc(N3CCCC3=O)cc2)ncc1Cl [Example 21] | 1.44[a]; | 2.56[c] |  | 
O=C1CCCN1c1ccc(Nc2ncc(Cl)c(NC3COC3)n2)cc1 [Example 18] | 0.41[a]; | 0.9[c] |  | 
O=C1CCCN1c1cccc(Nc2ncc(Cl)c(NCC(F)(F)F)n2)c1 [Example 10] | 2.08[a]; | 2.42[c] |  | 
O=C1C(O)CCN1c1cccc(Nc2ncc(Cl)c(NC3CC3)n2)c1 (centres unmarked) [Example 78] | 1.14[a]; | 1.84[c] |  | 
C=CCNc1nc(Nc2ccc(N3CCCC3=O)cc2)ncc1Cl [Example 13] | 1.38[a]; | 2.29[c] |  | 
CC1(C)CC(=O)N(c2cccc(Nc3ncc(Cl)c(NC4CC4(C)C)n3)c2)C1=O (centres unmarked) [Example 122] | 2.42[a]; | 3.28[c]; | 2.42[b] | 
O=C1CCCN1c1ccc(Nc2ncc(Cl)c(NCC(F)(F)F)n2)cc1 [Example 9] | 1.96[a]; | 2.34[c] |  | 
CNc1nc(Nc2ccc(N3CCOC3=O)cc2)ncc1Cl [Example 61] | 0.73[a]; | 1.82[c] |  | 
O=C1OCCN1c1ccc(Nc2ncc(I)c(NC3CC3)n2)cc1 [Example 11] | 1.41[a]; | 2.48[c] |  | 
CC1CC(=O)N(c2cccc(Nc3ncc(Cl)c(NC4CC4(C)C)n3)c2)C1=O (centres unmarked) [Example 121] | 2.13[a]; | 2.92[c]; | 2.13[b] | 
O=C1CCC(CO)N1c1cccc(Nc2ncc(Br)c(NC3CC3)n2)c1 (centres unmarked) [Example 79] | 1.04[a]; | 1.65[c] |  | 
CC1COC(=O)N1c1cccc(Nc2ncc(Cl)c(NC3CC3(C)C)n2)c1 (centres unmarked) [Example 120] | 2.15[a]; | 3.12[c]; | 2.15[b] | 
CC(C)OC(=O)N(c1cccc(N2CCCC2=O)c1)c1ncc(Cl)c(NC2CC2)n1 [Example 329, Isopropyl [5-chloro-4-(cyclopropylamino)pyrimidin-2-yl][3-(2-oxopyrrolidin-1-yl)phenyl]carbamate] |  |  |  | chromatographic logP [1]: 2.24; chromatographic logP (physchem): 2.55; chromatographic logP [2]: 2.24
CC(=O)N(c1cccc(N2CCCC2=O)c1)c1ncc(Cl)c(NCC2CC2)n1 [Example 184] |  | 2.38[c]; | 2.35[b] | log P (pH 2.3) ([1]; pH 2.3): 2.35

Compound | log p ([1]; pH 2.3) | log p (physchem) | log p [2] | also measured
O=C1CCCN1c1cccc(Nc2ncc(F)c(NC3CCC3)n2)c1 [Example 43] | 1.31[a]; | 2.32[c] |  | 
O=C1C[C@@H](O)CN1c1cccc(Nc2ncc(Cl)c(NC3CC3)n2)c1 [Example 108] | 0.98[a]; | 1.68[c] |  | 
CC1CCN(Cc2cccc(Nc3ncc(Cl)c(NC4CC4)n3)c2)C1=O (centres unmarked) [Example 234] | 1.7[a]; | 2.57[c] |  | 
CC1CC1Nc1nc(Nc2cccc(N3C(=O)OCC3C)c2)ncc1Cl (centres unmarked) [Example 215] |  | 2.79[c]; | 1.84[b] | 
CC1CC1Nc1nc(Nc2ccc(N3CCOC3=O)cc2)ncc1Br (centres unmarked) [Example 308] |  | 2.91[c]; | 1.97[b] | 
CCC1CC(C)C(=O)N1c1cccc(Nc2ncc(Br)c(NCC3CC3)n2)c1 (centres unmarked) [Example 209] |  | 3.69[c]; | 2.41[b] | 
CC(C)C1COC(=O)N1c1cccc(Nc2ncc(Br)c(NC3CCC3)n2)c1 (centres unmarked) [Example 248] |  | 3.71[c]; | 2.54[b] | 
CSCC(C)(C)Nc1nc(Nc2cccc(N3CCCC3=O)c2)ncc1Cl [Example 41] | 2.17[a]; | 3.26[c] |  | 
CN1CCN(c2cccc(Nc3ncc(Cl)c(NC4CC4(C)C)n3)c2)C1=O (centres unmarked) [Example 313] | 1.93[a]; | 3.06[c]; | 1.93[b] | 
O=C1CCCN1c1cccc(Nc2ncc(Cl)c(N3CCCCC3)n2)c1 [Example 225] |  | 3.53[c]; | 2.57[b] | 
CC1CC(C)N(c2cccc(Nc3ncc(C(F)(F)F)c(NC4CCC4)n3)c2)C1=O (centres unmarked) [Example 289] |  | 3.74[c]; | 3.27[b] | 
CC(Nc1nc(Nc2cccc(N3CCCC3=O)c2)ncc1C(F)(F)F)C(F)(F)F (centres unmarked) [Example 220, 1-[3-({5-(Trifluoromethyl)-4-[(1,1,1-trifluoropropan-2-yl)amino]pyrimidin-2-yl}amino)phenyl]-pyrrolidin-2-one] |  |  |  | chromatographic logP [1]: 3.08; chromatographic logP (physchem): 3.05; chromatographic logP [2]: 3.08
CC1CC(Nc2nc(Nc3cccc(N4C(=O)CC(C)C4=O)c3)ncc2Br)C1 (centres unmarked) [Example 281] |  | 2.98[c]; | 2.23[b] | 
CC1CC1Nc1nc(Nc2cccc(N3CCCCC3=O)c2)ncc1Br (centres unmarked) [Example 223] |  | 2.67[c]; | 1.81[b] | 
CC1CC(=O)N(c2cccc(Nc3ncc(Br)c(NC4CC4)n3)c2)C1 (centres unmarked) [Example 99] |  | 2.79[c]; | 1.85[b] | 
CC1CCN(Cc2cccc(Nc3ncc(Cl)c(N(C)C4CC4)n3)c2)C1=O (centres unmarked) [Example 233] | 2.5[a]; | 3.25[c] |  | 
O=C1CCC(C(F)(F)F)N1c1cccc(Nc2ncc(Br)c(NC3CCC3)n2)c1 (centres unmarked) [Example 258] |  | 3.24[c]; | 2.3[b] | 
CC1(Nc2nc(Nc3cccc(N4CCCC4=O)c3)ncc2C(F)(F)F)CC1 [Example 252] |  | 2.95[c]; | 2.44[b] | 

More lines, main results first:

log p ([1]; pH 2.3) | log p (physchem) | log p [2] | Compound | also measured
2.1[a]; | 3.18[c] |  | CC(C)N(C)c1nc(Nc2cccc(N3CCCC3=O)c2)ncc1Cl [Example 77] | 
1.45[a]; | 2.37[c] |  | C=CCNc1nc(Nc2cccc(N3CCCC3=O)c2)ncc1Cl [Example 14] | 
1.25[a]; | 2.25[c] |  | C=CCNc1nc(Nc2ccc(N3CCOC3=O)cc2)ncc1Cl [Example 15] | 
1.54[a]; | 2.06[c] |  | CN(c1nc(Nc2cccc(N3C(=O)CCC3CO)c2)ncc1Cl)C1CC1 (centres unmarked) [Example 82] | 
1.52[a]; | 2.64[c] |  | CC(C)Nc1nc(Nc2cccc(N3CCCC3=O)c2)ncc1Cl [Example 22] | 
1.55[a]; | 2.45[c] |  | COC1=CC(=O)N(c2cccc(Nc3ncc(Cl)c(NC4CC4)n3)c2)C1 [Example 237] | 
1.98[a]; | 2.99[c]; | 1.98[b] | CC1(C)CC1Nc1nc(Nc2cccc(N3CCCC3=O)c2)ncc1Cl (centres unmarked) [Example 127] | 
0.96[a]; | 1.6[c] |  | O=C1CCC(CO)N1c1cccc(Nc2ncc(Cl)c(NC3CC3)n2)c1 (centres unmarked) [Example 136] | 
2.4[a]; | 2.79[c] |  | COCC(C)Nc1nc(Nc2cccc(N3CCCC3=O)c2)ncc1C(F)(F)F (centres unmarked) [Example 6] | 
1.77[a]; | 2.65[c] |  | COC1=CC(=O)N(c2cccc(Nc3ncc(Br)c(NC4CC4)n3)c2)C1 [Example 238] | 
1.64[a]; | 2.19[c] |  | O=C1CCCN1c1cccc(Nc2ncc(Cl)c(NCC(F)F)n2)c1 [Example 44] | 
 | 2.29[c]; | 1.98[b] | O=C1CCCN1c1cccc(Nc2ncc(Cl)c(N3CCOCC3)n2)c1 [Example 226] | 
 | 3.01[c]; | 2.63[b] | O=C1CCCN1c1cccc(Nc2ncc(Cl)c(N3CCSCC3)n2)c1 [Example 228] | 
 | 2.53[c]; | 2.29[b] | CC1CC(=O)N(c2cccc(Nc3ncc(C(F)(F)F)c(NC4CC4)n3)c2)C1=O (centres unmarked) [Example 244] | 
 | 3.48[c]; | 2.66[b] | CC1CCN(c2cccc(Nc3ncc(Cl)c(N(C)C4CC4)n3)c2)C1=O (centres unmarked) [Example 186] | 
 | 2.56[c]; | 1.65[b] | CC1CN(c2cccc(Nc3ncc(Cl)c(NC4CC4)n3)c2)C(=O)O1 (centres unmarked) [Example 264] | 
0.26[a]; | 0.76[c] |  | O=C1OCCN1c1ccc(Nc2ncc(Cl)c(NC3COC3)n2)cc1 [Example 17] | 
 | 2.82[c]; | 2.56[b] | CCOC(=O)[C@@H]1CCC(=O)N1c1cccc(Nc2ncc(C(F)(F)F)c(NC3CC3)n2)c1 [Example 193] | 
 | 3.85[c]; | 3.47[b] | CC(C)C1COC(=O)N1c1cccc(Nc2ncc(C(F)(F)F)c(NC3CCC3)n2)c1 (centres unmarked) [Example 263] | 
 | 2.91[c]; | 1.79[b] | CCN(C)c1nc(Nc2cccc(N3CCCC3=O)c2)ncc1Cl [Example 207] | 
